Experimental data reported in ChEMBL document CHEMBL1201862, “PubChem BioAssay data set” (2004).
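96-well plates; 48 h exposure; 5 concentrations. Endpoints by linear interpolation between flanking doses. Not reached: highest tested concentration assigned. GI50: concentration for 50% inhibition of growth.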 Calls of active or inactive are those of the source. No stated cut-off is given here; in the data, active = GI50 up to about 1.1 µM and inactive = higher.

Assays:
Assay in all cases: DTP human tumour cell line panel, 48 h
[1] = system: U-251
[2] = system: SK-MEL-28
[3] = system: MOLT-4
[4] = system: LOX IMVI
[5] = system: SF-295
[6] = system: NCI-H23
[7] = system: HOP-92
[8] = system: SF-539
[9] = system: HT-29
[10] = system: HOP-62
[11] = system: HCC 2998
[12] = system: SNB-19
[13] = system: SF-268
[14] = system: HCT-116
[15] = system: Malme-3M
[16] = system: 786-0
[17] = system: HCT-15
[18] = system: SR
[19] = system: NCI/ADR-RES

SMILES | GI50 [1] | GI50 [2] | GI50 [3] | GI50 [4] | GI50 [5] | GI50 [6] | GI50 [7] | GI50 [8] | GI50 [9] | GI50 [10] | GI50 [11] | GI50 [12] | GI50 [13] | GI50 [14] | GI50 [15] | GI50 [16] | GI50 [17] | GI50 [18] | GI50 [19]
NNC(=O)N/N=C1/C(=O)N(c2ccc(Cl)c(Cl)c2)C(=O)C(=O)C1c1nc2ccccc2o1 (centres undefined) | > 100 µM (inactive) | > 100 µM (inactive) | 78.9 µM (inactive) | > 100 µM (inactive) | > 100 µM (inactive) | > 100 µM (inactive) | > 100 µM (inactive) | > 100 µM (inactive) | > 100 µM (inactive) | > 100 µM (inactive) | > 100 µM (inactive) | 29.5 µM (inactive) | > 100 µM (inactive) | > 100 µM (inactive) | > 100 µM (inactive) | > 100 µM (inactive) | > 100 µM | – | –
Cn1cc(NC(=O)c2cc(NC(=O)CCCCCCCC(=O)Nc3cc(C(=O)Nc4cc(C(=O)NCCC(=N)N)n(C)c4)n(C)c3)cn2C)cc1C(=O)NCCC(=N)N | 17.2 µM (inactive) | 11.7 µM (inactive) | 21.9 µM (inactive) | 15 µM (inactive) | > 100 µM (inactive) | 17.3 µM (inactive) | > 100 µM (inactive) | 17.7 µM (inactive) | 63.1 µM (inactive) | > 100 µM (inactive) | 16.1 µM (inactive) | 55.1 µM (inactive) | 19.8 µM (inactive) | 17.9 µM (inactive) | 5.75 µM (inactive) | 34 µM (inactive) | > 100 µM | 5.26 µM (inactive) | –
CCCCCCCCCCCCCCNCC(OC)OC | 16.3 µM (inactive) | 16.5 µM (inactive) | – | 16.4 µM (inactive) | 19.7 µM (inactive) | 20.2 µM (inactive) | 10.2 µM (inactive) | 16.9 µM (inactive) | 3.78 µM (inactive) | 16.7 µM (inactive) | 18.6 µM (inactive) | 17.9 µM (inactive) | 18.5 µM (inactive) | 13.1 µM (inactive) | 19.8 µM (inactive) | 16 µM (inactive) | 11.8 µM | – | –
CCCc1nc(NC#N)nc(C(=O)NC23CC4CC(CC(C4)C2)C3)c1C | > 100 µM (inactive) | > 100 µM (inactive) | > 100 µM (inactive) | > 100 µM (inactive) | > 100 µM (inactive) | > 100 µM (inactive) | > 100 µM (inactive) | > 100 µM (inactive) | > 100 µM (inactive) | > 100 µM (inactive) | > 100 µM (inactive) | > 100 µM (inactive) | > 100 µM (inactive) | > 100 µM (inactive) | > 100 µM (inactive) | > 100 µM (inactive) | > 100 µM | > 100 µM (inactive) | –
C=C(C)C(=O)OC1C/C(CO)=C\C(O)C/C(C)=C/C2OC(=O)C(=C)C21 (centres undefined) | > 100 µM (inactive) | 17.3 µM (inactive) | 21.3 µM (inactive) | 18.5 µM (inactive) | > 100 µM (inactive) | > 10 µM (inactive) | 20.8 µM (inactive) | 21 µM (inactive) | 17.6 µM (inactive) | > 100 µM (inactive) | > 10 µM (inactive) | > 100 µM (inactive) | 22.2 µM (inactive) | 17.5 µM (inactive) | 20.6 µM (inactive) | 16 µM (inactive) | 14.1 µM | 19.9 µM (inactive) | –
Cc1cccc(Cl)c1NC(N)=S | 20.8 µM (inactive) | 55.1 µM (inactive) | 47.1 µM (inactive) | – | 73.8 µM (inactive) | 83 µM (inactive) | 35.4 µM (inactive) | 33.7 µM (inactive) | 43.4 µM (inactive) | 50.8 µM (inactive) | > 100 µM (inactive) | 81.5 µM (inactive) | 51.3 µM (inactive) | 17.4 µM (inactive) | 52 µM (inactive) | 20.2 µM (inactive) | 18.4 µM | – | –
O=c1cccccc1NCCOCCNc1cccccc1=O | > 100 µM (inactive) | > 100 µM (inactive) | > 100 µM (inactive) | > 100 µM (inactive) | > 100 µM (inactive) | > 100 µM (inactive) | – | – | > 100 µM (inactive) | > 100 µM (inactive) | > 100 µM (inactive) | > 100 µM (inactive) | > 100 µM (inactive) | > 100 µM (inactive) | > 100 µM (inactive) | > 100 µM (inactive) | > 100 µM | – | –
O=C1N[C@@H]2CCCC[C@@H]2C12CCCCC2 | > 100 µM (inactive) | > 100 µM (inactive) | > 100 µM (inactive) | > 100 µM (inactive) | > 100 µM (inactive) | > 100 µM (inactive) | – | > 100 µM (inactive) | > 100 µM (inactive) | > 100 µM (inactive) | > 100 µM (inactive) | > 100 µM (inactive) | > 100 µM (inactive) | > 100 µM (inactive) | > 100 µM (inactive) | > 100 µM (inactive) | – | > 100 µM (inactive) | –
COC(=O)c1sc(C(=O)OC)c2c1C[S+]([O-])C2 | > 100 µM (inactive) | > 100 µM (inactive) | > 100 µM (inactive) | > 100 µM (inactive) | > 100 µM (inactive) | > 100 µM (inactive) | > 100 µM (inactive) | > 100 µM (inactive) | > 100 µM (inactive) | – | > 100 µM (inactive) | > 100 µM (inactive) | > 100 µM (inactive) | > 100 µM (inactive) | > 100 µM (inactive) | > 100 µM (inactive) | > 100 µM | – | –
CC1=C2C(O)C(C(C)C(=O)NCC(C)C)CCC2(C)C=CC1=O (centres undefined) | > 100 µM (inactive) | > 100 µM (inactive) | > 100 µM (inactive) | > 100 µM (inactive) | > 100 µM (inactive) | > 100 µM (inactive) | > 100 µM (inactive) | > 100 µM (inactive) | > 100 µM (inactive) | > 100 µM (inactive) | > 100 µM (inactive) | > 100 µM (inactive) | > 100 µM (inactive) | > 100 µM (inactive) | – | – | > 100 µM | – | > 100 µM (inactive)
CC(=O)OC1CCC2C3CCc4c(C)ccc(OS(=O)(=O)c5ccccc5)c4C3CCC12C (centres undefined) | 13.6 µM (inactive) | > 100 µM (inactive) | 6.32 µM (inactive) | 7.41 µM (inactive) | 25.5 µM (inactive) | 16.3 µM (inactive) | 6.55 µM (inactive) | – | 13.1 µM (inactive) | 26.4 µM (inactive) | 64.9 µM (inactive) | 47.1 µM (inactive) | > 100 µM (inactive) | 3.37 µM (inactive) | 50.4 µM (inactive) | 6.76 µM (inactive) | 7.73 µM | 6.82 µM (inactive) | –
CN(C)c1ccc(O[Si](Oc2ccc(N(C)C)cc2)(Oc2ccc(N(C)C)cc2)Oc2ccc(N(C)C)cc2)cc1 | 89.3 µM (inactive) | > 100 µM (inactive) | 98.2 µM (inactive) | 79.1 µM (inactive) | 86.3 µM (inactive) | 99.5 µM (inactive) | > 100 µM (inactive) | > 100 µM (inactive) | > 100 µM (inactive) | > 100 µM (inactive) | 79.6 µM (inactive) | > 100 µM (inactive) | > 100 µM (inactive) | > 100 µM (inactive) | > 100 µM (inactive) | > 100 µM (inactive) | – | > 100 µM (inactive) | –
O=C(NCCO)c1cc2c(cn1)[nH]c1ccccc12 | > 100 µM (inactive) | > 100 µM (inactive) | > 100 µM (inactive) | > 100 µM (inactive) | > 100 µM (inactive) | > 100 µM (inactive) | > 100 µM (inactive) | > 100 µM (inactive) | > 100 µM (inactive) | 17.9 µM (inactive) | 16.9 µM (inactive) | > 100 µM (inactive) | > 100 µM (inactive) | > 100 µM (inactive) | 22.1 µM (inactive) | 17.4 µM (inactive) | > 100 µM | – | –
CCCCCCCC(=O)OC(COC(=O)Cc1ccccc1)COC(=O)C(C)(C)C (centres undefined) | > 100 µM (inactive) | > 100 µM (inactive) | 71.9 µM (inactive) | > 100 µM (inactive) | > 100 µM (inactive) | > 100 µM (inactive) | 32.8 µM (inactive) | – | – | > 100 µM (inactive) | > 100 µM (inactive) | > 100 µM (inactive) | > 100 µM (inactive) | > 100 µM (inactive) | > 100 µM (inactive) | > 100 µM (inactive) | > 100 µM | 64 µM (inactive) | –
O=C(/N=C(/Nc1ccccc1)SCS/C(=N\C(=O)c1ccco1)Nc1ccccc1)c1ccco1 | 32 µM (inactive) | > 100 µM (inactive) | > 100 µM (inactive) | > 100 µM (inactive) | 26.5 µM (inactive) | 24.4 µM (inactive) | 18.7 µM (inactive) | 23.2 µM (inactive) | > 100 µM (inactive) | 19.5 µM (inactive) | 53.7 µM (inactive) | 24 µM (inactive) | 22.5 µM (inactive) | 37.2 µM (inactive) | > 100 µM (inactive) | 35.2 µM (inactive) | > 100 µM | – | –
CCN(CC)c1ccc(/N=N\c2ccc(-c3nc4ccc[n+](C)c4s3)cc2)cc1 | 4.07 µM (inactive) | – | 2.84 µM (inactive) | 0.423 µM (active) | 17.8 µM (inactive) | 5.5 µM (inactive) | 10.6 µM (inactive) | 11 µM (inactive) | 5.25 µM (inactive) | 17.3 µM (inactive) | – | 5.3 µM (inactive) | 6.07 µM (inactive) | 3.53 µM (inactive) | 6.11 µM (inactive) | 17.1 µM (inactive) | 16.7 µM | 4.5 µM (inactive) | –
CC#N.O[C@@H]1CCCC[C@H]1O.O[C@@H]1CCCC[C@H]1O.[TeH2] | 13.9 µM (inactive) | > 100 µM (inactive) | 27.4 µM (inactive) | 9.57 µM (inactive) | 18.6 µM (inactive) | 20.8 µM (inactive) | 26.2 µM (inactive) | > 100 µM (inactive) | 28.2 µM (inactive) | 53.5 µM (inactive) | > 100 µM (inactive) | 39.8 µM (inactive) | > 100 µM (inactive) | 13.4 µM (inactive) | > 100 µM (inactive) | 48.8 µM (inactive) | 18.1 µM | 24.8 µM (inactive) | –
